Test results from the Deep4Chem optical property database.
One block for each compound: values may come before it.

Experiment: solvent given as SMILES

absorption maximum (in C1CCOC1): 353 nm
Compound: N#Cc1c(N2CCCC2)cc(-c2ccccc2)c2c1-c1ccccc1C2

absorption maximum (in O): 285 nm
Compound: N[C@@H](Cc1ccc(O)cc1)C(=O)O

absorption maximum (in CO): 755 nm
Compound: CC1(C)C(/C=C/C=C/C=C/C=C2/N(S(=O)(=O)[O-])c3ccc(S(=O)(=O)[O-])cc3C2(C)C)=[N+](S(=O)(=O)[O-])c2ccc(S(=O)(=O)[O-])cc21

absorption maximum (in CN(C)C=O): 681 nm
Compound: CCOC(=O)C(Cc1ccc(O[Si]2(Oc3ccc(CC(NC(C)=O)C(=O)OCC)cc3)n3c4c5ccccc5c3/N=C3N=C(/N=c5/c6ccccc6/c(n52)=N/C2=NC(=N\4)/c4ccccc42)c2ccccc2\3)cc1)NC(C)=O (stereo not drawn)

Compound: CCN(CC)c1ccc(-c2nc3c(c4c2-c2ccccc2CC4)-c2ccccc2CC3)cc1
absorption maximum (in C1CCOC1): 357 nm | absorption maximum (in CC#N): 360 nm | absorption maximum (in CCCCCC): 355 nm | absorption maximum (in CCOC(C)=O): 346 nm | absorption maximum (in CO): 352 nm | absorption maximum (in CS(C)=O): 361 nm | absorption maximum (in Cc1ccccc1): 359 nm | absorption maximum (in ClCCl): 357 nm

absorption maximum (in C1CCOC1): 423 nm | absorption maximum (in CC#N): 425 nm | absorption maximum (in CS(C)=O): 436 nm | absorption maximum (in ClCCl): 427 nm
Compound: C(=C\c1cnc2ccccc2n1)/c1ccc(N(c2ccccc2)c2ccccc2)cc1

absorption maximum (in C1CCOC1): 303 nm
Compound: F[Si-](F)(c1ccccc1)(c1ccccc1)c1cc2ccccc2c2ccccc12

absorption maximum (in CC#N): 360 nm | absorption maximum (in CCO): 340 nm
Compound: O=c1c(-c2ccc(O)cc2)coc2cc(O)cc(O)c12

absorption maximum (in ClCCl): 428 nm
Compound: Cc1ccc(N(c2ccccc2)c2ccc3ccc4c(N(c5ccccc5)c5ccc(C)cc5)ccc5ccc2c3c54)cc1

Compound: Nc1cccc2cccc(N)c12
absorption maximum (in CC#N): 349 nm | absorption maximum (in CO): 334 nm | absorption maximum (in CS(C)=O): 354 nm | absorption maximum (in Cc1ccccc1): 334 nm

Compound: COC1=C/C(=C\C=C2C=CN(Cc3ccc(Br)cc3)C=C2)C=CC1=O
absorption maximum (in CC#N): 617 nm | absorption maximum (in CC(C)=O): 624 nm | absorption maximum (in CC(C)CO): 576 nm | absorption maximum (in CC(C)O): 585 nm | absorption maximum (in CCC#N): 620 nm | absorption maximum (in CCCCCCO): 584 nm | absorption maximum (in CCCCCO): 588 nm | absorption maximum (in CCCCO): 576 nm | absorption maximum (in CCCO): 577 nm | absorption maximum (in CCO): 568 nm | absorption maximum (in CN(C)C=O): 621 nm | absorption maximum (in CN(C)P(=O)(N(C)C)N(C)C): 629 nm | absorption maximum (in CO): 537 nm | absorption maximum (in CS(C)=O): 619 nm

absorption maximum (in ClCCl): 590 nm
Compound: CC1=CC(C)=[N+]2C1=C(c1ccc(Br)cc1)c1c(C)cc(/C=C/c3ccc[nH]3)n1[B-]2(F)F

absorption maximum (in C1CCCCC1): 299 nm
Compound: C=Cc1cc(OC)cc(OC)c1

absorption maximum (in ClCCl): 415 nm
Compound: CCCCNc1nc(/C=C/c2ccccc2)[n+]([O-])c2c1CCCC2

absorption maximum (in CC1CCCCC1): 327 nm | absorption maximum (in CC#N): 333 nm | absorption maximum (in CO): 335 nm
Compound: COC(=O)C(NC(=O)OC(C)(C)C)c1ccc2oc(-c3cc(OC)c(OC)cc3OC)nc2c1 (stereo not drawn)

Compound: CN(C)c1ccc2[c](c1)[Sn]([CH3])([CH3])[C]1=CC(=[N+](C)C)C=CC1=C2
absorption maximum (in O): 614 nm

absorption maximum (in ClCCl): 416 nm
Compound: [O-][n+]1c(/C=C/c2ccccc2)nc(Nc2ccccc2)c2c1CCCC2

absorption maximum (in CC#N): 394 nm | absorption maximum (in CO): 399 nm | absorption maximum (in ClCCl): 393 nm
Compound: Cc1ccc(O)c(-c2[nH]c(=O)n3c2-c2ccccc2C3=O)c1

absorption maximum (in ClCCl): 443 nm
Compound: CCCCCCCCCCCCN1C(=O)c2c(c3ccc4cc(-c5ccc(OC)cc5)c(OC)cc4c3c3c2ccc2cc(-c4ccc(OC)cc4)c(OC)cc23)C1=O

absorption maximum (in C1CCCCC1): 388 nm
Compound: COc1ccc2c3c(c4ccc(OC)cc4c2c1)C(C)(C)c1ccccc1-3

absorption maximum (in ClCCl): 370 nm
Compound: c1ccc(N(c2ccccc2)c2ccc(-c3nc(-c4ccc(N(c5ccccc5)c5ccccc5)cc4)c4ccccc4n3)cc2)cc1

absorption maximum (in ClC(Cl)Cl): 671 nm
Compound: COc1ccccc1-c1cc2c(o1)=CC1=Cc3cc4oc(-c5ccccc5OC)cc4n3[B-](F)(F)[N+]=21

absorption maximum (in ClC(Cl)Cl): 504 nm
Compound: CC1=CC(C)=[N+]2C1=C(c1ccc(I)cc1)c1c(C)cc(C)n1[B-]2(OC(C)C)OC(C)C

absorption maximum (in CC#N): 412 nm | absorption maximum (in ClCCl): 418 nm
Compound: COc1ccc(-c2cc3c(s2)c(C(C)=O)cc(=O)n3C)cc1

absorption maximum (in ClC(Cl)Cl): 691 nm
Compound: CN1C(=CC2=C([O-])C(=Cc3sc4ccccc4[n+]3C)C2=C(C#N)C#N)C(C)(C)c2ccccc21

absorption maximum (in CCCCCC): 450 nm | absorption maximum (in CO): 466 nm
Compound: O=C1C=C(Nc2ccccc2)C(=O)c2ccccc21

Compound: CN(C)c1ccc(C(=O)Nc2cccc(Br)c2)cc1
absorption maximum (in C1CCCCC1): 310 nm | absorption maximum (in C1CCOC1): 317 nm | absorption maximum (in CC#N): 318 nm | absorption maximum (in CCOCC): 312 nm

absorption maximum (in CCO): 382 nm
Compound: COc1ccc(C(=O)COc2c(C)c(=O)n3c(=O)c(C)c(COC(=O)c4ccccc4Cl)n23)cc1

Compound: CCn1c2ccccc2c2cc(/C=C/c3cccc(/C=C/c4ccc5c(c4)c4ccccc4n5CC)[n+]3CCCS(=O)(=O)[O-])ccc21
absorption maximum (in C1CCOC1): 460 nm | absorption maximum (in CC#N): 454 nm | absorption maximum (in CC(C)=O): 458 nm | absorption maximum (in Cc1ccccc1): 453 nm

Compound: C(#Cc1nc2ccccc2s1)c1ccc(N(c2ccc(C#Cc3nc4ccccc4s3)cc2)c2ccc(C#Cc3nc4ccccc4s3)cc2)cc1
absorption maximum (in Cc1ccccc1): 404 nm

absorption maximum (in ClCCl): 365 nm
Compound: CCCCC(CC)COc1ccc2nc(-c3ccc(-c4ccc(OC)cc4)s3)sc2c1 (stereo not drawn)

absorption maximum (in CC#N): 555 nm | absorption maximum (in CCO): 543 nm | absorption maximum (in CN(C)C=O): 562 nm | absorption maximum (in O): 558 nm
Compound: CCCCOC(=O)c1ccccc1-c1c2ccc(=[N+](CC)CC)cc-2oc2cc(N(CC)CC)ccc12

absorption maximum (in CO): 569 nm
Compound: C#CCOc1ccc(/C=C/C2=[N+]3C(=C(c4ccc(N(C)CC)cc4)c4c(C)cc(C)n4[B-]3(F)F)C(C)=C2)cc1

Compound: CC(C)(C)c1ccc2c(c1)c1cc(C(C)(C)C)ccc1n2-c1ccc(C#Cc2ccccc2)cc1
absorption maximum (in CC#N): 329 nm | absorption maximum (in CCCCC): 329 nm | absorption maximum (in CO): 329 nm | absorption maximum (in Cc1ccccc1): 335 nm | absorption maximum (in ClC(Cl)Cl): 329 nm | absorption maximum (in ClCCl): 334 nm

absorption maximum (in C1CCCCC1): 319 nm
Compound: CCCC1(CCC)c2cc(C#N)ccc2-c2ccc(C#N)cc21

absorption maximum (in ClCCl): 447 nm
Compound: CCCCC(CC)Cn1c2cc(C#N)ccc2c2ccc(C#Cc3ccc4ccc5ccc(C#Cc6ccc7c8ccc(C#N)cc8n(CC(CC)CCCC)c7c6)c6ccc3c4c56)cc21 (stereo not drawn)

absorption maximum (in C1CCOC1): 347 nm | absorption maximum (in ClCCl): 350 nm
Compound: O=P1(c2ccccc2)C(c2ccccc2)=Cc2ccccc21 (stereo not drawn)

absorption maximum (in ClCCl): 576 nm
Compound: CC1=C(C#Cc2ccc(B(c3c(C)cc(C)cc3C)c3c(C)cc(C)cc3C)cc2)C(C)=[N+]2C1=C(c1ccccc1)c1c(C)c(C#Cc3ccc(B(c4c(C)cc(C)cc4C)c4c(C)cc(C)cc4C)cc3)c(C)n1[B-]2(F)F

absorption maximum (in CC#N): 325 nm
Compound: CN(C)c1ccc(-c2nc3ccccc3n2-c2ccccc2)cc1

absorption maximum (in C1CCOC1): 297 nm
Compound: CC(C)(C)c1ccc(-c2c(-c3cccc(N(c4ccccc4)c4ccccc4)c3)c(C#N)c(-c3cccc(N(c4ccccc4)c4ccccc4)c3)c(-c3ccc(C(C)(C)C)cc3)c2-c2ccc(C(C)(C)C)cc2)cc1

absorption maximum (in ClCCl): 490 nm
Compound: N#C/C(=C\c1ccc(/C=C/c2ccc(N(c3ccccc3)c3ccccc3)cc2)s1)C(=O)O

absorption maximum (in CC#N): 391 nm | absorption maximum (in CO): 395 nm | absorption maximum (in ClCCl): 392 nm
Compound: Cc1cccc(-c2[nH]c(=O)n3c2-c2ccccc2C3=O)c1O

absorption maximum (in ClCCl): 346 nm
Compound: CSc1ccc(/C=C/c2ccncn2)cc1
